Experimental data published in patent US12492188B2, “1H-benzo[D]imidazole derivatives as TLR9 inhibitors for the treatment of fibrosis” (BRISTOL-MYERS SQUIBB COMPANY, priority 2020, dated 2025).
Read-outs that look alike come from different tables or passages of the source.

Legend:
Type in all cases: cell-based
human TLR7 = target: T1, human TLR7 (Homo sapiens, UniProt Q9NYK1); experiment: TLR7 inhibition reporter assay (HEK-Blue cells, secreted embryonic alkaline phosphatase reporter); conditions: HEK-Blue cells overexpressing human TLR7, stimulated with gardiquimod 7.5 μM; read-out: TLR 7 IC50
T1 construct: host or cells: HEK-Blue cells (HEK293-derived reporter line)
T1 sequence (Q9NYK1 27-1049): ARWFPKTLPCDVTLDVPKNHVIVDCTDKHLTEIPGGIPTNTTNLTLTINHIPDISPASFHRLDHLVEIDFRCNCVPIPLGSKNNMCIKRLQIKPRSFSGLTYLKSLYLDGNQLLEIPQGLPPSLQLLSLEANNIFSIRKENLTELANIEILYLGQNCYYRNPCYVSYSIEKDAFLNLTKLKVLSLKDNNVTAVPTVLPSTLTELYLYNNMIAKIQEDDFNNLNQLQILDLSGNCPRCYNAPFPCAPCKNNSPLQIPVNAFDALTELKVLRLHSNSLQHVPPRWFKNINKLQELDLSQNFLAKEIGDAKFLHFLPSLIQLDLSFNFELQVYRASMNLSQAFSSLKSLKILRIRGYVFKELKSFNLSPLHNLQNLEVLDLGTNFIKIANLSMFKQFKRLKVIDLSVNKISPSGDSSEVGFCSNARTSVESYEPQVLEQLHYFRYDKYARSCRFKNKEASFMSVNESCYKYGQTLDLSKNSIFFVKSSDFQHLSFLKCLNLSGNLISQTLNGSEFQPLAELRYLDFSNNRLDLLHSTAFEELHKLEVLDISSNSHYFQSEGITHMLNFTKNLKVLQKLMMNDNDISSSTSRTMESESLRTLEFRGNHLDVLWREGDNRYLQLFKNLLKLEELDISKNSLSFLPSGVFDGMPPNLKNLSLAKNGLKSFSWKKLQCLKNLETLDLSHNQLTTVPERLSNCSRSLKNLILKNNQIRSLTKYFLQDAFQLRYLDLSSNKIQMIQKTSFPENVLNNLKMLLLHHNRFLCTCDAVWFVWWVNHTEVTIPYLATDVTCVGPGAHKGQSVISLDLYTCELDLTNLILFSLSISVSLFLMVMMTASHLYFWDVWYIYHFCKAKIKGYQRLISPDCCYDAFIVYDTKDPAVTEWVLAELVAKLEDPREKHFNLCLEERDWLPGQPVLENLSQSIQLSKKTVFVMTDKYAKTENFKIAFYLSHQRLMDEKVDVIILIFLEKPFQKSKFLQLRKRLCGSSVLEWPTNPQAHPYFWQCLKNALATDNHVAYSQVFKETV
Method in brief: (§1)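 Agonist-driven SEAP output was measured in HEK-Blue reporter cells carrying human TLR7 (gardiquimod 7.5 μM), TLR8 (R848 15.9 μM) or TLR9 (ODN2006 5 nM). Compounds at 0.05 nM–50 μM final were added 30 min before stimulation at room temperature. After 22 h at 37 °C, percent inhibition was taken against agonist/DMSO wells and a reference inhibitor.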

human TLR8 = target: T2, human TLR8 (Homo sapiens, UniProt Q9NR97); experiment: TLR8 inhibition reporter assay (HEK-Blue cells, secreted embryonic alkaline phosphatase reporter); conditions: HEK-Blue cells overexpressing human TLR8, stimulated with R848 15.9 μM; read-out: TLR 8 IC50
T2 construct: host or cells: HEK-Blue cells (HEK293-derived reporter line)
T2 sequence (Q9NR97 27-1041): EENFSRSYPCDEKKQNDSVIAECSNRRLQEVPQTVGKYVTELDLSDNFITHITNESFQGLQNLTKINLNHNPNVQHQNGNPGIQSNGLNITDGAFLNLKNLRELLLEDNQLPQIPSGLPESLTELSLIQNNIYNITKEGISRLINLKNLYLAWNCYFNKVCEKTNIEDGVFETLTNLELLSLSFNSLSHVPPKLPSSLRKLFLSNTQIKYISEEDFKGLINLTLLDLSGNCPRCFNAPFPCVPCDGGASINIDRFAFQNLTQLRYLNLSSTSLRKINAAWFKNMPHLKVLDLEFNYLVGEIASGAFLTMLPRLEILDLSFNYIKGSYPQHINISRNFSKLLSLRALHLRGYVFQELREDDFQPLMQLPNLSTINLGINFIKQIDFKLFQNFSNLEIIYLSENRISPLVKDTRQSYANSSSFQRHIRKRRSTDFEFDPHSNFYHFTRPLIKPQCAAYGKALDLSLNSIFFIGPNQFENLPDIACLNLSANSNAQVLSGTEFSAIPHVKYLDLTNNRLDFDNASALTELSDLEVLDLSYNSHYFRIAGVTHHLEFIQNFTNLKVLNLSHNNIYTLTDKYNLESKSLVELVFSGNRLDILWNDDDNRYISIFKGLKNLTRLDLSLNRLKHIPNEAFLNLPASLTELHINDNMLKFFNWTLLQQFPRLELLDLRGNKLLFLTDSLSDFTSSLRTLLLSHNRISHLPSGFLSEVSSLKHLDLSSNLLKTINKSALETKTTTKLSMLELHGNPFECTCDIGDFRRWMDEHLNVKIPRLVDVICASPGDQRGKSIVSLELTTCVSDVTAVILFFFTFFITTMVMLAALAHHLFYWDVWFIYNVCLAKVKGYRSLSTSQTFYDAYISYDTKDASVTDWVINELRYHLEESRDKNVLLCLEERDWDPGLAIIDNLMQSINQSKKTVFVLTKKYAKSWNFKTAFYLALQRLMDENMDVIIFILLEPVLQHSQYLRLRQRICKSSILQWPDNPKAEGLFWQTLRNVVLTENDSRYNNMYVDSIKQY
Method in brief: as §1

human TLR9 = target: T3, human TLR9 (Homo sapiens, UniProt Q9NR96); experiment: TLR9 inhibition reporter assay (HEK-Blue cells, secreted embryonic alkaline phosphatase reporter)
T3 construct: host or cells: HEK-Blue cells (HEK293-derived reporter line)
T3 sequence (Q9NR96 26-1032): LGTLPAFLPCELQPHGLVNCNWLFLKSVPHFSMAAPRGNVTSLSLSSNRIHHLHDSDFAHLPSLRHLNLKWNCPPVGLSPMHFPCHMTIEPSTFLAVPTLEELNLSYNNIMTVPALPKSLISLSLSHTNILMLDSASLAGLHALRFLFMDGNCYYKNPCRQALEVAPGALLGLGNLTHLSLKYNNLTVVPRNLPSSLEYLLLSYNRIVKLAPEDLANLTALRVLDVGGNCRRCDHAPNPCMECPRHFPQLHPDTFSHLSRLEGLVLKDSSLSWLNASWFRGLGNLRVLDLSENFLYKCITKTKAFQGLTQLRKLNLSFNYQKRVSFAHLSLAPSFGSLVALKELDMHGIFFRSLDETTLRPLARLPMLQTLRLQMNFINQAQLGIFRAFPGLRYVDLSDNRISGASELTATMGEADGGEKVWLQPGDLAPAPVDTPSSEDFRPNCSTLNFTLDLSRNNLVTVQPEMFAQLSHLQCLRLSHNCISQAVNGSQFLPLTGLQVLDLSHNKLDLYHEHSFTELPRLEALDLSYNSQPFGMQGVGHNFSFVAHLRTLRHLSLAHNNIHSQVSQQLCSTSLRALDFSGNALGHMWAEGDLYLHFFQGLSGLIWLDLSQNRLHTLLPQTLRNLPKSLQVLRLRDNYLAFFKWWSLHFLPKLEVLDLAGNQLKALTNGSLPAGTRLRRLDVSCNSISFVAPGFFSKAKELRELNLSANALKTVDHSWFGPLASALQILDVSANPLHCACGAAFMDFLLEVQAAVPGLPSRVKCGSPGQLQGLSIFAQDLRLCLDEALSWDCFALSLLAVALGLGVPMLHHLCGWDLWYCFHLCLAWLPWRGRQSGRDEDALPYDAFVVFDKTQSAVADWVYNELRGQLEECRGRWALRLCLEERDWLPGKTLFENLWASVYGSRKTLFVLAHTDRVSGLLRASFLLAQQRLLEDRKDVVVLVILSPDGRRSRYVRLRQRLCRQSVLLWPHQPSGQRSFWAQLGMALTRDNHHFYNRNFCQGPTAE
Method in brief: as §1

[1] = HEK-Blue cells overexpressing human TLR9, stimulated with ODN2006 5 nM, read-out: TLR 9 IC50
[2] = HEK-Blue human TLR9 reporter cells
[3] = HEK-Blue cells overexpressing human TLR9, stimulated with ODN2006 5 nM, 22 hour incubation, reporter readout

SMILES	IC50 (human TLR7)	IC50 (human TLR8)	IC50 (human TLR9; [1])	IC50 (human TLR9; [2])	IC50 (human TLR9; [3])
COc1cc(-c2nc3c(C)cc(C4CCN(C5CC6CCC(C5)N6C5CC5)CC4)cc3n2C)cn2ncnc12 (stereo not shown) [Example 354, 6-(6-(1-(8-cyclopropyl-8-azabicyclo[3.2.1]octan-3-yl)piperidin-4-yl)-1,4-dimethyl-1H-benzo[d]imidazol-2-yl)-8-methoxy-[1,2,4]triazolo[1,5-a]pyridine]	7500 nM	700 nM	85 nM	85 nM	–
COc1cc(-c2nc3c(C)cc(C4CCN(C5CC6CCC(C5)N6C(C)C)CC4)cc3n2C)cn2ncnc12 (stereo not shown) [Example 357, 6-(6-(1-(8-isopropyl-8-azabicyclo[3.2.1]octan-3-yl)piperidin-4-yl)-1,4-dimethyl-1H-benzo[d]imidazol-2-yl)-8-methoxy-[1,2,4]triazolo[1,5-a]pyridine]	300 nM	7900 nM	32 nM	32 nM	–
COc1cc(-c2nc3c(C)cc(C4CCN(C5CC6CCC(C5)N6CC5CC5)CC4)cc3n2C)cn2ncnc12 (stereo not shown) [Example 358, 6-(6-(1-(8-(cyclopropylmethyl)-8-azabicyclo[3.2.1]octan-3-yl)piperidin-4-yl)-1,4-dimethyl-1H-benzo[d]imidazol-2-yl)-8-methoxy-[1,2,4]triazolo[1,5-a]pyridine]	100 nM	2800 nM	8.1 nM	8.1 nM	–
COc1cc(-c2nc3c(C)cc(C4CCN(C5CC6CCC(C5)N6CC(C)C)CC4)cc3[nH]2)cn2ncnc12 (stereo not shown) [Example 359, 6-(6-(1-(8-isobutyl-8-azabicyclo[3.2.1]octan-3-yl)piperidin-4-yl)-4-methyl-1H-benzo[d]imidazol-2-yl)-8-methoxy-[1,2,4]triazolo[1,5-a]pyridine]	2900 nM	14900 nM	76 nM	76 nM	–
COc1cc(-c2nc3c(C)cc(C4CCN(C5CC6CCC(C5)N6C5CC5)CC4)cc3[nH]2)cn2ncnc12 (stereo not shown) [Example 360, 6-(6-(1-(8-cyclopropyl-8-azabicyclo[3.2.1]octan-3-yl)piperidin-4-yl)-4-methyl-1H-benzo[d]imidazol-2-yl)-8-methoxy-[1,2,4]triazolo[1,5-a]pyridine]	700 nM	26300 nM	9.7 nM	9.7 nM	–

Results, then the compound that gave them:

IC50 (human TLR7)	IC50 (human TLR8)	IC50 (human TLR9; [1])	IC50 (human TLR9; [2])	IC50 (human TLR9; [3])	SMILES
> 50000 nM	> 50000 nM	–	–	310 nM	Cc1cc(-c2ccc(C3CCN(C4CCOCC4)CC3)cc2)cc2c1nc(-c1ccc(S(C)(=O)=O)cc1)n2C [Example 364, 1,4-dimethyl-2-(4-(methylsulfonyl)phenyl)-6-(4-(1-(tetrahydro-2H-pyran-4-yl)piperidin-4-yl)phenyl)-1H-benzo[d]imidazole]
2100 nM	14200 nM	–	–	300 nM	Cc1cc(-c2ccc(C3CCN(C(C)C)CC3)nc2)cc2c1nc(-c1ccc(S(C)(=O)=O)cc1)n2C [Example 365, 6-(6-(1-isopropylpiperidin-4-yl)pyridin-3-yl)-1,4-dimethyl-2-(4-(methylsulfonyl)phenyl)-1H-benzo[d]imidazole]
2300 nM	1900 nM	508 nM	–	510 nM	Cc1cc(-c2ccc(N3CCC(N4CCCC4)CC3)cc2)cc2c1nc(-c1ccc(S(C)(=O)=O)cc1)n2C [Example 367, 1,4-dimethyl-2-(4-(methylsulfonyl)phenyl)-6-(4-(4-(pyrrolidin-1-yl)piperidin-1-yl)phenyl)-1H-benzo[d]imidazole]
1400 nM	1700 nM	414 nM	–	410 nM	Cc1cc(-c2ccc(N3CCC(N(C)C)CC3)cc2)cc2c1nc(-c1ccc(S(C)(=O)=O)cc1)n2C [Example 368, 1-(4-(1,4-dimethyl-2-(4-(methylsulfonyl)phenyl)-1H-benzo[d]imidazol-6-yl)phenyl)-N,N-dimethylpiperidin-4-amine]
1800 nM	4500 nM	–	–	56 nM	Cc1cc(-c2ccc(CN3CC4(CN(C)C4)C3)cc2)cc2c1nc(-c1ccc(S(C)(=O)=O)cc1)n2C [Example 370, 1,4-dimethyl-6-(4-((6-methyl-2,6-diazaspiro[3.3]heptan-2-yl)methyl)phenyl)-2-(4-(methylsulfonyl)phenyl)-1H-benzo[d]imidazole]
1800 nM	6800 nM	–	–	55 nM	Cc1cc(-c2ccc(CN3CC4(C3)CN(CC(C)C)C4)cc2)cc2c1nc(-c1ccc(S(C)(=O)=O)cc1)n2C [Example 371, 6-(4-((6-isobutyl-2,6-diazaspiro[3.3]heptan-2-yl)methyl)phenyl)-1,4-dimethyl-2-(4-(methylsulfonyl)phenyl)-1H-benzo[d]imidazole]
